Experimental data published in paper PMC8373216, “Development and Preclinical Evaluation of New Inhaled Lipoglycopeptides for the Treatment of Persistent Pulmonary Methicillin-Resistant Staphylococcus aureus Infections” (Antimicrobial Agents and Chemotherapy, 2021).
Values after ≈ are worked out from the molar mass of the structure shown. Like-named read-outs stand apart in the source and are kept apart here.

Columns and labels:
[1] = Single-dose nebulized nose-only inhalation PK in healthy rats; type: in vivo, rat
Protocol: Rats were acclimated in the study facility for approximately 1 week prior to study start. Ten or eleven rats per cohort were loaded into the chamber at the time of dosing. […] An additional airflow set to 6 liters/min was admixed with the nebulizer output to further direct the test articles to the animals. […] The remaining port on the chamber was fit with an aerosol sampling filter for dose determination over a 5 min sampling period. The average dose delivered to the nose of each animal was calculated using an algorithm that was previously described ([49]). […] Animals were euthanized for collection of whole lungs and plasma at time points ranging from immediate postdose (IPD; approximately 30 min after dosing for nebulization) to 168 h postdose (7 days). Drugs were extracted from tissues using customized protein precipitation methods with an appropriate internal standard for each compound and transferred for analysis by LC-MS/MS (Sciex API4500 or API6500+ mass spectrometer [Sciex, Framingham, MA]). GraphPad Prism (La Jolla, CA) was used for statistical analyses and data plotting. […] The data were applied to a noncompartmental analysis after extravascular dosing input and fit to a linear up/log down model. Statistical analysis of in vitro intracellular and biofilm activity was based on a two-way ANOVA with a Bonferroni post test. In vivo statistical analysis was based on the Kolmogorov-Smirnov test.

[2] = test system: Staphylococcus haemolyticus; experiment: Expanded panel broth microdilution MIC; type: cell-based
Staphylococcus hominis = experiment: Expanded panel broth microdilution MIC; type: cell-based
Streptococcus pneumoniae = experiment: Expanded panel broth microdilution MIC/MBC; type: cell-based; details: for MIC:MBC: MBC on one organism
Streptococcus oralis = experiment: Expanded panel broth microdilution MIC; type: cell-based
[3] = test system: Peptostreptococcus micros; experiment: Expanded panel broth microdilution MIC; type: cell-based
[4] = test system: Peptostreptococcus anaerobius; experiment: Expanded panel broth microdilution MIC; type: cell-based
Cutibacterium acnes = experiment: Expanded panel broth microdilution MIC; type: cell-based
[5] = test system: MRSA (ATCC BAA 1556; USA300); experiment: Acute pulmonary MRSA infection in neutropenic rats, nebulized nose-only inhalation; type: in vivo, Staphylococcus aureus; details: inhaled at 24 and 32 h postinfection, lungs at 48 h, RV40 14.4 mg/kg, RV94 18.8 mg/kg delivered
Protocol: Rats were rendered neutropenic with intraperitoneal (i.p.) cyclophosphamide on day −4 (150 mg/kg) and day −1 (100 mg/kg) relative to the challenge. On day 0 at 0 h, rats were challenged with MRSA via intranasal instillation at a target titer of 8.0 to 8.3 log10 CFU. At 24 and 32 h postchallenge, rats were loaded into a 12-port inhalation dosing tower, where they received nebulized drug or vehicle control treatments by nose-only inhalation. Animals were euthanized at 48 h postinfection for enumeration of lung MRSA titer. MRSA lung titer of test article treatments versus control is plotted for three separate experiments. […] Statistics are based on the Kolmogorov-Smirnov test for drug treatment versus control (RV94, P = 0.01). LOD = 2.1 log10 CFU/lungset.
Male Sprague Dawley rats (Envigo, Indianapolis, IN) weighing between 225 and 250 g were used in these studies. Rats were housed and acclimated to the study facility as described in the PK methods section. Rats were rendered neutropenic through a series of intraperitoneal cyclophosphamide (Sigma-Aldrich) injections on day −4 (150 mg/kg) and day −1 (100 mg/kg) relative to the challenge. On day 0 at 0 h, rats were challenged with MRSA ATCC BAA 1556 via intranasal instillation at a target titer of 8.0 to 8.3 log10 CFU using optical density and back-counting inoculum CFU. To prepare the inoculum, a frozen aliquot of the organism stored at −80°C was thawed, transferred into TSB, and incubated at 37°C while shaking for 16 h. Cultures were then centrifuged at 2,000 × g for 5 min, and the resulting pellet was resuspended in PBS and equilibrated. For the challenge procedure, rats were first anesthetized through use of 2 to 5% isoflurane in 100% oxygen, then restrained with a scruff grip and a total of 200 μl of inoculum was quickly introduced to one nare. The rat was held in a vertical position until the challenge was fully inhaled. Rats were monitored following challenge to ensure that normal respiration was achieved and then returned to their cage. […] At necropsy, whole lungs were aseptically removed and lung weights were recorded. […]

[6] = single nebulized nose-only inhaled dose, healthy rats
[7] = male, Sprague Dawley, rat, in vivo, 120 h
[8] = male, Sprague Dawley, rat, in vivo, inhaled or intranasal

**Q.** Which results are given for CCCCCCCCCCNCCN[C@@]1(C)C[C@H](O[C@H]2[C@H](Oc3c4cc5cc3Oc3ccc(cc3Cl)[C@@H](O)[C@@H](NC(=O)[C@@H](CC(C)C)NC)C(=O)N[C@@H](CC(N)=O)C(=O)N[C@H]5C(=O)N[C@H]3C(=O)N[C@H](C(=O)N[C@H](C(=O)O)c5cc(O)c(CNCP(=O)(O)O)c(O)c5-c5cc3ccc5O)[C@H](O)c3ccc(c(Cl)c3)O4)O[C@H](CO)[C@@H](O)[C@@H]2O)O[C@@H](C)[C@H]1O [Telavancin, telavancin]?
**A.** half-life ([1]; male, Sprague Dawley, rat, in vivo, inhaled or intranasal, single nebulized nose-only inhaled dose, healthy rats, noncompartmental analysis, read-out: Lung t1/2 (converted)): 21.1 days; Drug lung level at 120 h ([1]; relative to IPD level, rat lung): 81%; Lung AUC0-∞ [1, 6]: 3877 µg·h/g; Lung Cmax [1, 6]: 12 µg/g; Plasma Cmax [1, 6]: BLQ; MIC [2]: 0.06 µg/mL (≈ 0.0342 µM); MIC ([2]; ATCC29970): 0.06 µg/mL (≈ 0.0342 µM); MIC (Staphylococcus hominis): 0.06 µg/mL (≈ 0.0342 µM); MIC (Staphylococcus hominis; ATCC27844): 0.06 µg/mL (≈ 0.0342 µM); MIC:MBC (Streptococcus pneumoniae; S. pneumoniae PISP): 1; MIC (Streptococcus pneumoniae; S. pneumoniae PRSP, 1 isolate): 0.03 µg/mL (≈ 0.0171 µM); MIC (Streptococcus pneumoniae; Streptococcus pneumoniae): 0.015 µg/mL (≈ 0.00854 µM); MIC (Streptococcus pneumoniae; Streptococcus pneumoniae, ATCC49619): 0.03 µg/mL (≈ 0.0171 µM); MIC (Streptococcus pneumoniae; Streptococcus pneumoniae, PRSP): 0.03 µg/mL (≈ 0.0171 µM); MIC (Streptococcus pneumoniae; Streptococcus pneumoniae, read-out: MIC (median)): 0.02 µg/mL (≈ 0.0114 µM); MIC (Streptococcus oralis; S. oralis MGS, 1 isolate): 0.06 µg/mL (≈ 0.0342 µM); MIC (Streptococcus oralis; Streptococcus oralis): 0.06 µg/mL (≈ 0.0342 µM); MIC ([3]; P. micros, 1 isolate): 0.12 µg/mL (≈ 0.0684 µM); MIC ([3]; Parvimonas micra): 0.12 µg/mL (≈ 0.0684 µM); MIC [4]: 0.03 µg/mL (≈ 0.0171 µM); MIC ([4]; ATCC27337): 0.03 µg/mL (≈ 0.0171 µM); MIC (Cutibacterium acnes; ATCC6919): 0.03 µg/mL (≈ 0.0171 µM); MIC (Cutibacterium acnes; ATCC11827): 0.015 µg/mL (≈ 0.00854 µM); MIC (Cutibacterium acnes; read-out: MIC (median)): 0.02 µg/mL (≈ 0.0114 µM)

**Q.** Which Pulmonary dose ([1]; male, Sprague Dawley, rat, in vivo) does the source give for CCCCCCCCCCNC(=O)CNC1(C)CC(OC2C(Oc3c4cc5cc3Oc3ccc(cc3Cl)C(O)C3NC(=O)C(NC(=O)C5NC(=O)C(CC(N)=O)NC(=O)C(NC(=O)C(CC(C)C)NC)C(O)c5ccc(c(Cl)c5)O4)c4ccc(O)c(c4)-c4c(O)cc(O)cc4C(C(=O)O)NC3=O)OC(CO)C(O)C2O)OC(C)C1O (stereo not drawn) [RV94] here?
**A.** The Pulmonary dose was 1.10 mg/kg.

**Q.** And the “Drug lung level at 120 h” value [1, 7]?
**A.** Its value is 45%.

**Q.** What about the “Primary hydrolysis byproduct lung level at 120 h” value [1, 7] of the same compound?
**A.** Its value is 0.1%.

**Q.** And the Kp [1, 8]?
**A.** Its Kp is 1870.

**Q.** And the “Lung AUC0-∞” value [1, 8]?
**A.** Its value is 40671 µg·h/g.

**Q.** What about the “Lung Cmax” value [1, 8] of the same compound?
**A.** The value was 262 µg/g.

**Q.** What about the “Lung t1/2” value [1, 8] of the same compound?
**A.** The value was 4.5 days.

**Q.** And the “Plasma Cmax” value [1, 8]?
**A.** The value was 140 ng/mL.

**Q.** What about the “Hydrolysis product RV101 relative to parent concentration at lung Cmax” value ([1]; male, Sprague Dawley, rat, in vivo, inhaled or intranasal, 120 h) of the same compound?
**A.** Its value is 0.1%.

**Q.** And the MIC ([2]; ATCC29970, S. haemolyticus ATCC 29970, read-out: MIC)?
**A.** The MIC was 0.06 µg/mL (≈ 0.0364 µM).

**Q.** And the MIC ([2]; S. haemolyticus, 1 isolate, read-out: MIC)?
**A.** The MIC was 0.06 µg/mL (≈ 0.0364 µM).

**Q.** And the MIC (Staphylococcus hominis; ATCC27844, S. hominis ATCC 27844, read-out: MIC)?
**A.** The MIC was 0.03 µg/mL (≈ 0.0182 µM).

**Q.** What about the MIC (Staphylococcus hominis; S. hominis, 1 isolate, read-out: MIC) of the same compound?
**A.** The MIC was 0.03 µg/mL (≈ 0.0182 µM).

**Q.** And the “MIC:MBC” value (Streptococcus pneumoniae; S. pneumoniae PISP)?
**A.** Its value is 4.

**Q.** What about the MIC (Streptococcus pneumoniae; S. pneumoniae PRSP, 1 isolate) of the same compound?
**A.** The MIC was 0.008 µg/mL (≈ 0.00486 µM).

**Q.** And the MIC (Streptococcus pneumoniae; Streptococcus pneumoniae, ATCC49619, S. pneumoniae ATCC 49619, PISP, read-out: MIC)?
**A.** The MIC was 0.008 µg/mL (≈ 0.00486 µM).

**Q.** And the MIC (Streptococcus pneumoniae; Streptococcus pneumoniae, S. pneumoniae MMX 432, PRSP, read-out: MIC)?
**A.** Its MIC is 0.008 µg/mL (≈ 0.00486 µM).

**Q.** What about the MIC (Streptococcus pneumoniae; Streptococcus pneumoniae, S. pneumoniae MMX 747, PISP, read-out: MIC) of the same compound?
**A.** Its MIC is 0.004 µg/mL (≈ 0.00243 µM).

**Q.** What about the MIC (Streptococcus pneumoniae; Streptococcus pneumoniae, S. pneumoniae PISP, 2 isolates, read-out: MIC (median)) of the same compound?
**A.** The MIC was 0.006 µg/mL (≈ 0.00364 µM).

**Q.** And the MIC (Streptococcus oralis; S. oralis MGS, 1 isolate)?
**A.** Its MIC is 0.015 µg/mL (≈ 0.00911 µM).

**Q.** What about the MIC (Streptococcus oralis; Streptococcus oralis, S. oralis (MGS) MMX 5821, read-out: MIC) of the same compound?
**A.** Its MIC is 0.015 µg/mL (≈ 0.00911 µM).

**Q.** And the MIC ([4]; ATCC27337, P. anaerobius ATCC 27337, read-out: MIC)?
**A.** Its MIC is 0.008 µg/mL (≈ 0.00486 µM).

**Q.** And the MIC ([4]; P. anaerobius, 1 isolate, read-out: MIC)?
**A.** Its MIC is 0.008 µg/mL (≈ 0.00486 µM).

**Q.** What about the MIC (Cutibacterium acnes; ATCC6919, P. acnes ATCC 6919, read-out: MIC) of the same compound?
**A.** The MIC was 0.008 µg/mL (≈ 0.00486 µM).

**Q.** What about the MIC (Cutibacterium acnes; ATCC11827, P. acnes ATCC 11827, read-out: MIC) of the same compound?
**A.** The MIC was 0.008 µg/mL (≈ 0.00486 µM).

**Q.** And the MIC (Cutibacterium acnes; C. acnes, 2 isolates, read-out: MIC (median))?
**A.** Its MIC is 0.008 µg/mL (≈ 0.00486 µM).

**Q.** What about the “Average reduction in lung MRSA titer versus vehicle control” value [5] of the same compound?
**A.** The value was 1.0 log10 CFU.
